Laboratory results published in paper PMC6025901 (Science translational medicine, 2015).
Like-named read-outs stand apart in the source and are kept apart here.

Tests used:
[1] = target: full-length TcdB (Clostridioides difficile, UniProt P18177); format: biochemical, Clostridium difficile
[2] = tested on: TcdB-induced cell rounding, human foreskin fibroblast (HFF) cells; test: cells; format: cell-based; details: for EC50: Homo sapiens, HFF
[3] = target: TcdB CPD domain (Clostridioides difficile, UniProt P18177); test: competition labeling assay with TAMRA–AWP-19; format: biochemical, Clostridium difficile; details: IP6-activated CPD, TAMRA–AWP-19 labeling
[4] = tested on: large clostridial toxins (TcdA and TcdB) in patient stool sample, cell rounding; test: cells; format: cell-based; details: Homo sapiens, read-out: EC50 for inhibition of toxin-induced cytopathology
[5] = target: TcdB GTD domain (amino acids 1 to 543) (Clostridioides difficile, UniProt P18177); format: biochemical, Clostridium difficile
[6] = tested on: C. difficile strain 630; test: mouse C. difficile infection model; format: in vivo; details: for histopathological score, dose-response study: 5-day treatment
[7] = target: TcdB (Clostridioides difficile, UniProt P18177); test: murine systemic intoxication; format: in vivo, mouse; details: mice, TcdB 1.0 µg/kg i.p. pretreated with 100 nM ebselen
[8] = target: full-length TcdA (Clostridioides difficile, UniProt P16154); test: IP6-induced autoprocessing / TAMRA–AWP-19 labeling of full-length TcdA; format: biochemical, Clostridium difficile
[9] = 100 mg/kg daily oral gavage, day 5, vs vehicle

Chain of full-length TcdB (P18177 whole entry): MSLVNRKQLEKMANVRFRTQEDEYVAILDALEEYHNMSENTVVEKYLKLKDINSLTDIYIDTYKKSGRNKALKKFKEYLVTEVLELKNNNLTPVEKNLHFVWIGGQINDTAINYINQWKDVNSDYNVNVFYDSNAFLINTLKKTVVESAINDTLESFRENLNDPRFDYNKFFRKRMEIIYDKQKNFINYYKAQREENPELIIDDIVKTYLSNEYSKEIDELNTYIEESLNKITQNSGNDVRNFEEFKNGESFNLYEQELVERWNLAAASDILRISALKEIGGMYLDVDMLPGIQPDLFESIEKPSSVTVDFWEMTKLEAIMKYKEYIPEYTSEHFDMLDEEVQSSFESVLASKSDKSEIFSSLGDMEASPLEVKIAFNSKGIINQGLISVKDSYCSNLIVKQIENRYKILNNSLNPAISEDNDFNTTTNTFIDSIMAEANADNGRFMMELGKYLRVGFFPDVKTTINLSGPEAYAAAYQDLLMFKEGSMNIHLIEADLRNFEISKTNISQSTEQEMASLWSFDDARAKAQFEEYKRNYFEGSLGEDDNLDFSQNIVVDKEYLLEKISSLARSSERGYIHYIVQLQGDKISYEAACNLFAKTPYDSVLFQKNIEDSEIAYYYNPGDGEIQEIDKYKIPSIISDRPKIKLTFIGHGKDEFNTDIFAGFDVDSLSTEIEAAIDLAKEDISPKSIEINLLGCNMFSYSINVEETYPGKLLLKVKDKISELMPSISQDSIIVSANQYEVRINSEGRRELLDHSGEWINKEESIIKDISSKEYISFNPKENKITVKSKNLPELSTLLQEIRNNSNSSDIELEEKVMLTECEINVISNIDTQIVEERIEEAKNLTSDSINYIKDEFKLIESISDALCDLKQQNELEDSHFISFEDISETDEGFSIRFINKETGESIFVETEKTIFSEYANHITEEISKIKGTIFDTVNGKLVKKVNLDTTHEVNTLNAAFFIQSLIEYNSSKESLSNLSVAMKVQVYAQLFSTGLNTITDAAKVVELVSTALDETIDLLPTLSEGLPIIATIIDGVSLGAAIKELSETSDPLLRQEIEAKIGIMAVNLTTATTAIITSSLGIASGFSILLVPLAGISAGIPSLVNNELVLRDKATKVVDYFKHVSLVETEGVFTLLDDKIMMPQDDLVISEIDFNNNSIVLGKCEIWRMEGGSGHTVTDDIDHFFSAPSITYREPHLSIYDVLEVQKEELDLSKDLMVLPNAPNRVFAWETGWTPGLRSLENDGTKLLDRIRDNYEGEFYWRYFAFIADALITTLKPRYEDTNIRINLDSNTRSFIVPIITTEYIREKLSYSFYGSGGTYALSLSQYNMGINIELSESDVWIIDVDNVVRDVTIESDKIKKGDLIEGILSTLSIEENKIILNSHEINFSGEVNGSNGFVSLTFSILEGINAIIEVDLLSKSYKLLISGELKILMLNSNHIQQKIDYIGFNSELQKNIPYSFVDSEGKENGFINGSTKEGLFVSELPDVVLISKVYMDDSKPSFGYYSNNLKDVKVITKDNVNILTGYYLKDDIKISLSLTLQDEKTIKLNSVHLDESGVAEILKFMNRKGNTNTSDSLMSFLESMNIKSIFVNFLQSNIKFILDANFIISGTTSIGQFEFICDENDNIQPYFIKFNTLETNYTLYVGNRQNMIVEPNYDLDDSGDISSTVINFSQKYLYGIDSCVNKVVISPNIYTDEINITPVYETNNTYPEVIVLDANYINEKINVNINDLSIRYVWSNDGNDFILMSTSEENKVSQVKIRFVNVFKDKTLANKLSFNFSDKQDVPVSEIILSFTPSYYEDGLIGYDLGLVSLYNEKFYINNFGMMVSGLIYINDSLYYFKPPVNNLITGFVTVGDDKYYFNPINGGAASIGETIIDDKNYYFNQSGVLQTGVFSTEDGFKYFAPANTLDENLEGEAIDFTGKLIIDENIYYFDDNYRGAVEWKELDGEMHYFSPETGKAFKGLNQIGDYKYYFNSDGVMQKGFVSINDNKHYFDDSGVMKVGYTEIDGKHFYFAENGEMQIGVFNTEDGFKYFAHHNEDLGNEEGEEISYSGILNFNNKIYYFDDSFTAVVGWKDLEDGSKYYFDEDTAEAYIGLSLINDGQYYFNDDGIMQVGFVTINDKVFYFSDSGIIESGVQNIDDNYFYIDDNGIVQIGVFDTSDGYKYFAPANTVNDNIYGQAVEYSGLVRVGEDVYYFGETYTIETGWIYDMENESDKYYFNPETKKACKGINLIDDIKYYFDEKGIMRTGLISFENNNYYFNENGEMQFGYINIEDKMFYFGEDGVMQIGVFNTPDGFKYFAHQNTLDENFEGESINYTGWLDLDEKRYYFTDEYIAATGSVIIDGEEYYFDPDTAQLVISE
Chain of full-length TcdA (P16154 whole entry, looked up): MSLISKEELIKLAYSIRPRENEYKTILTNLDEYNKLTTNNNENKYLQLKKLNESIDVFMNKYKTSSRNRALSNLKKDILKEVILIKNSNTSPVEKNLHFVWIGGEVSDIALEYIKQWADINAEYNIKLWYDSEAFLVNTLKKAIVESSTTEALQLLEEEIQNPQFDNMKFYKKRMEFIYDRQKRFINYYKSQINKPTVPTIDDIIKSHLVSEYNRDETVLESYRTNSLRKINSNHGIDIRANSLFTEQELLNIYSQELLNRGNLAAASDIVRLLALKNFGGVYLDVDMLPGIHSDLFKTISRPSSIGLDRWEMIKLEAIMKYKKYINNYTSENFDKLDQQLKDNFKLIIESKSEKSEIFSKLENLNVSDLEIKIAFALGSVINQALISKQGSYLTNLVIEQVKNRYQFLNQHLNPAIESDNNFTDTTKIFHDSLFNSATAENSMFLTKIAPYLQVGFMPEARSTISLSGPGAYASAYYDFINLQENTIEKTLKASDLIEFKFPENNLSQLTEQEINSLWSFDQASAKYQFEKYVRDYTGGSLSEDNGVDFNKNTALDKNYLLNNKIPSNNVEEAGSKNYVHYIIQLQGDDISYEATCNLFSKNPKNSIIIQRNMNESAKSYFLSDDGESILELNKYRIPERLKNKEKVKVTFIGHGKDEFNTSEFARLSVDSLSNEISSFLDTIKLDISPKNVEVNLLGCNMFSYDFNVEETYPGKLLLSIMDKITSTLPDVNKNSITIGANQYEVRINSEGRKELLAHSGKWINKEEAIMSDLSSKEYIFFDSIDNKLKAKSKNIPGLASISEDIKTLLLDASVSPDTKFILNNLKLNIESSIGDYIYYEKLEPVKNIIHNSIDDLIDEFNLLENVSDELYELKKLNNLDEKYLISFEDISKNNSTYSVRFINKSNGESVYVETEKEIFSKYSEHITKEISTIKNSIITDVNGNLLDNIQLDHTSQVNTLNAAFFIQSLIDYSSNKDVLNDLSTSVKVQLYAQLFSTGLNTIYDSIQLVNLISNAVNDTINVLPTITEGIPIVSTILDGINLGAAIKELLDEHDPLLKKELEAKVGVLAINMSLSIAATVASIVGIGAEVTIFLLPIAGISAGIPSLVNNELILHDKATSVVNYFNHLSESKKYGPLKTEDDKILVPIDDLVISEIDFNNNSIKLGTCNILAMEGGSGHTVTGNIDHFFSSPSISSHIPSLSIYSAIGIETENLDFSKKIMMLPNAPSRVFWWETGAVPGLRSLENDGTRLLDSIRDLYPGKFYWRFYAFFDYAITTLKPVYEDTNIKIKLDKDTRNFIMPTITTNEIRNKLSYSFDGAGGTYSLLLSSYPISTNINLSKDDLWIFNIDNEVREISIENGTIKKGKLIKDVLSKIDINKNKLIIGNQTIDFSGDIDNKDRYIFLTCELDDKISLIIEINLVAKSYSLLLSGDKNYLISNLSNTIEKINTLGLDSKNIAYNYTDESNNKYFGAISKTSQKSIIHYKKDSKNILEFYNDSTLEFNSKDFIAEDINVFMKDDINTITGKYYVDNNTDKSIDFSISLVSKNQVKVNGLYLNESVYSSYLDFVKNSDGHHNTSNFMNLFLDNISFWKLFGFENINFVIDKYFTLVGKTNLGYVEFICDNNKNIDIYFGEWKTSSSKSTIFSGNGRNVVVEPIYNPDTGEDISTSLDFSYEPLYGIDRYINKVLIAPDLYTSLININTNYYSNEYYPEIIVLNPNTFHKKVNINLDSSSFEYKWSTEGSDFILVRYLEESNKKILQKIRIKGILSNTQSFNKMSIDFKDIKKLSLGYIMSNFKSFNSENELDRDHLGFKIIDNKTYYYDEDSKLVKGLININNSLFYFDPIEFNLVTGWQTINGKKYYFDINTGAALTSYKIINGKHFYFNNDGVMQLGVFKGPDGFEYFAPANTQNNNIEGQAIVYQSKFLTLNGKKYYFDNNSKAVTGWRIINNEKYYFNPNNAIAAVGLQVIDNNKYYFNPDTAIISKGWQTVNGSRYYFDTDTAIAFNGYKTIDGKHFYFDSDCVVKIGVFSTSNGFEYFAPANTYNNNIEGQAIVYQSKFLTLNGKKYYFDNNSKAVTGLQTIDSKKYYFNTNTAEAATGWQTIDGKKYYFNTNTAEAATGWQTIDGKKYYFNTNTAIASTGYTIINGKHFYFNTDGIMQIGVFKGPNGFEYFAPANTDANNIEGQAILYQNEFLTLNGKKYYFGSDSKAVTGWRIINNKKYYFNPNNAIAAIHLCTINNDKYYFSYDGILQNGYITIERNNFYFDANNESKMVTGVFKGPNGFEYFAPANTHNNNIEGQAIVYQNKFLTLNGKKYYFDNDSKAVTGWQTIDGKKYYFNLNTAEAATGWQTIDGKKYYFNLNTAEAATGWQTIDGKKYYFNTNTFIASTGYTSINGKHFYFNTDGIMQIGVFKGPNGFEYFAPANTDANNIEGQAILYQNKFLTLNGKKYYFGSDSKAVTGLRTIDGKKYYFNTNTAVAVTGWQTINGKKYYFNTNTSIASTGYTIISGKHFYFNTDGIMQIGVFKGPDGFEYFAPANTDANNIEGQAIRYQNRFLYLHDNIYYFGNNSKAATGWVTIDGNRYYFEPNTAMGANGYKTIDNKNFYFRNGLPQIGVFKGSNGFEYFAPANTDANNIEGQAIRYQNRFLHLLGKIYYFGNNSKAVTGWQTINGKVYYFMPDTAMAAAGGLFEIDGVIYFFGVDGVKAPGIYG

O=c1c2ccccc2[se]n1-c1ccccc1 [ebselen, 2-phenyl-1,2-benzoselenazol-3-one]
concentration giving complete inhibition of IP6-induced release of the GTD [1]: 20 nM | inhibition of IP6-induced autoprocessing of full-length TcdB [1]: low nanomolar potency | glucosylated Rac1 (Western blot, mAb102 nonglucosylated Rac1) [2]: decreased with increasing amounts of ebselen | protection against delayed toxicity of L543A noncleavable mutant TcdB [2]: showed further protection | EC50 ([2]; read-out: EC50 for blocking cell rounding): 20.5 nM | EC50 ([2]; read-out: EC50 for protection against cell rounding): 217 nM | inhibition of IP6-induced labeling of the CPD active-site cysteine [3]: low nanomolar concentrations | EC50 [4]: 372 nM | inhibition of glucosyltransferase activity of the GTD domain [5]: did not show any inhibition | histopathological score, dose-response study ([6]; 1 mg/kg daily): no improvement in histopathological score | histopathological score, dose-response study ([6]; 10 mg/kg daily): partial response | C. difficile CFU counts in feces ([6]; 100 mg/kg daily oral gavage, 5-day experiment): did not significantly affect | histopathological scores for cell infiltration, submucosal edema, and mucosal hypertrophy [6, 9]: significantly lower | overall histopathological (clinical) score [6, 9]: statistically significant drop in clinical score | cell rounding activity of shed toxin in feces (quantity of feces required to induce 50% cell rounding) ([6]; 100 mg/kg daily oral gavage, day 5 after infection): reduction in cell rounding activity of shed toxin | cleaved form of GTD in colon tissues (Western blot) ([6]; 100 mg/kg daily oral gavage, vs vehicle): reduced the amount of the cleaved form of GTD | histopathological score, dose-response study ([6]; 100 mg/kg daily): virtually complete response | clinical signs of toxin action (vital signs) [7]: no significant changes in vital signs | inhibition of IP6-induced autoprocessing of full-length TcdA [8]: low nanomolar potency
